Test in all cases: relative viability (nuclei count vs DMSO), 5 days (fraction); higher = more cells survive
Compound in experiment [1]: Cn1cc(-c2cnn3c(N)c(Br)c([C@@H]4CCCNC4)nc23)cn1 + CC(=O)Nc1cccc(-n2c(=O)n(C3CC3)c(=O)c3c(Nc4ccc(I)cc4F)n(C)c(=O)c(C)c32)c1 [Trametinib] (partner 0.02 µM)
A digest of the protocol:
(§1)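 Lung cancer cell lines, seeded in 1536-well plates, were treated the following day by pin tool with a single drug or with five library-drug doses (not always all listed) in √10 steps on top of a fixed anchor-drug dose. Cells were fixed and nuclei stained in one step after 5 days, and nuclei were counted. Relative viability is the nuclei count for treated wells divided by that for vehicle wells, reported as medians of duplicate plates.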

Compound in experiment [2]: Cn1cc(-c2cnn3c(N)c(Br)c([C@@H]4CCCNC4)nc23)cn1 + CC1(C)CCC(c2ccc(Cl)cc2)=C(CN2CCN(c3ccc(C(=O)NS(=O)(=O)c4ccc(N[C@H](CCN5CCOCC5)CSc5ccccc5)c(S(=O)(=O)C(F)(F)F)c4)cc3)CC2)C1 [Navitoclax] (partner 0.5 µM)
In short, it runs like this:
as §1

Compound in experiment [3]: Cn1cc(-c2cnn3c(N)c(Br)c([C@@H]4CCCNC4)nc23)cn1 + N=C(N)NC(=N)NCCc1ccccc1 [Phenformin] (partner 250 µM)
A digest of the protocol:
as §1

Compound in experiment [4]: Cn1cc(-c2cnn3c(N)c(Br)c([C@@H]4CCCNC4)nc23)cn1 + Nc1nc2[nH]cc(CCc3ccc(C(=O)N[C@@H](CCC(=O)O)C(=O)O)cc3)c2c(=O)[nH]1 [Pemetrexed] (partner 0.2 µM)
In short, it runs like this: as §1

For the cell line PC-3 [JPC-3], the relative viability amounted to 0.693 in experiment [1] (first compound 0.05 µM); 0.705 in experiment [1] (first compound 0.1581 µM); 0.642 in experiment [1] (first compound 1.581 µM); 0.608 in experiment [1] (first compound 5 µM); 0.75 in experiment [2] (first compound 0.05 µM); 0.899 in experiment [2] (first compound 0.1581 µM). Further, the relative viability in experiment [2] (first compound 0.5 µM) was found to be 0.735; in experiment [2] (first compound 1.581 µM), 0.832; in experiment [2] (first compound 5 µM), 0.899; in experiment [3] (first compound 0.05 µM), 0.444; in experiment [3] (first compound 0.1581 µM) it was 0.476; in experiment [3] (first compound 0.5 µM), 0.443. Further, the relative viability in experiment [3] (first compound 1.581 µM) is 0.448; in experiment [3] (first compound 5 µM), 0.455; in experiment [4] (first compound 0.05 µM), 0.698; in experiment [4] (first compound 0.1581 µM), 1.03; in experiment [4] (first compound 1.581 µM) it was 1.09; in experiment [4] (first compound 5 µM), 0.82.
In the case of NCI-H1993, the relative viability in experiment [1] (first compound 0.05 µM) was found to be 0.518; in experiment [1] (first compound 0.1581 µM), 0.467; in experiment [1] (first compound 0.5 µM), 0.643; in experiment [1] (first compound 1.581 µM), 0.435; in experiment [1] (first compound 5 µM) it was 0.511; in experiment [2] (first compound 0.05 µM), 0.793. The relative viability is 0.898 in experiment [2] (first compound 0.1581 µM); 0.873 in experiment [2] (first compound 1.581 µM); 0.831 in experiment [2] (first compound 5 µM); 0.522 in experiment [3] (first compound 0.05 µM); 0.536 in experiment [3] (first compound 0.1581 µM); 0.412 in experiment [3] (first compound 0.5 µM). The relative viability amounted to 0.481 in experiment [3] (first compound 1.581 µM); 0.513 in experiment [3] (first compound 5 µM); 0.572 in experiment [4] (first compound 0.05 µM); 0.595 in experiment [4] (first compound 0.1581 µM); 0.693 in experiment [4] (first compound 0.5 µM); 0.482 in experiment [4] (first compound 1.581 µM). For the same cell line, the relative viability in experiment [4] (first compound 5 µM) amounted to 0.575.
In the case of NCI-H1915, the relative viability is 0.479 in experiment [1] (first compound 0.05 µM); 0.313 in experiment [1] (first compound 0.1581 µM); 0.304 in experiment [1] (first compound 0.5 µM); 0.347 in experiment [1] (first compound 1.581 µM); 0.301 in experiment [1] (first compound 5 µM); 0.796 in experiment [2] (first compound 0.05 µM). Besides, the relative viability in experiment [2] (first compound 0.1581 µM) worked out at 0.805; in experiment [2] (first compound 0.5 µM) it was 0.736; in experiment [2] (first compound 1.581 µM) it was 0.765; in experiment [2] (first compound 5 µM), 0.775; in experiment [3] (first compound 0.05 µM), 0.344; in experiment [3] (first compound 0.1581 µM) it was 0.377. Besides, the relative viability came to 0.36 in experiment [3] (first compound 0.5 µM); 0.357 in experiment [3] (first compound 1.581 µM); 0.379 in experiment [3] (first compound 5 µM); 0.545 in experiment [4] (first compound 0.05 µM); 0.435 in experiment [4] (first compound 0.1581 µM); 0.422 in experiment [4] (first compound 0.5 µM). For the same cell line, the figures for the relative viability in experiment [4] (first compound 1.581 µM) and in experiment [4] (first compound 5 µM) were 0.372 and 0.358, respectively.
Take RERF-LC-KJ: the relative viability in experiment [1] (first compound 0.05 µM) turned out to be 0.88; in experiment [1] (first compound 0.1581 µM) it was 0.839; in experiment [1] (first compound 0.5 µM) it was 0.835; in experiment [1] (first compound 1.581 µM), 0.8; in experiment [1] (first compound 5 µM), 0.657; in experiment [2] (first compound 0.05 µM), 1.2. For the same cell line, the relative viability was 0.927 in experiment [2] (first compound 0.1581 µM); 0.884 in experiment [2] (first compound 0.5 µM); 0.707 in experiment [2] (first compound 1.581 µM); 0.678 in experiment [2] (first compound 5 µM); 0.41 in experiment [3] (first compound 0.05 µM); 0.46 in experiment [3] (first compound 0.1581 µM). For the same cell line, the relative viability in experiment [3] (first compound 0.5 µM) was 0.41; in experiment [3] (first compound 1.581 µM) it was 0.408; in experiment [3] (first compound 5 µM) it was 0.412; in experiment [4] (first compound 0.05 µM), 0.459; in experiment [4] (first compound 0.1581 µM), 0.476; in experiment [4] (first compound 0.5 µM) it was 0.477. For the same cell line, the relative viability is 0.422 in experiment [4] (first compound 1.581 µM) and 0.478 in experiment [4] (first compound 5 µM).
Turning to LOU-NH91, the relative viability in experiment [1] (first compound 0.05 µM) amounted to 0.804; in experiment [1] (first compound 0.1581 µM) it was 0.776; in experiment [1] (first compound 0.5 µM), 0.751; in experiment [1] (first compound 1.581 µM) it was 0.749; in experiment [1] (first compound 5 µM), 0.665; in experiment [2] (first compound 0.05 µM), 0.732. The relative viability is 0.666 in experiment [2] (first compound 0.1581 µM); 0.644 in experiment [2] (first compound 0.5 µM); 0.67 in experiment [2] (first compound 1.581 µM); 0.474 in experiment [2] (first compound 5 µM); 0.668 in experiment [3] (first compound 0.05 µM); 0.657 in experiment [3] (first compound 0.1581 µM). The relative viability in experiment [3] (first compound 0.5 µM) was 0.679; in experiment [3] (first compound 1.581 µM) it was 0.706; in experiment [3] (first compound 5 µM), 0.562; in experiment [4] (first compound 0.05 µM), 0.398; in experiment [4] (first compound 0.1581 µM) it was 0.289; in experiment [4] (first compound 0.5 µM), 0.254. The relative viability in experiment [4] (first compound 1.581 µM) stood at 0.25; in experiment [4] (first compound 5 µM) it was 0.64.
Consider NCI-H2347, for which the relative viability in experiment [1] (first compound 0.05 µM) was determined as 0.272; in experiment [1] (first compound 0.1581 µM) it was 0.285; in experiment [1] (first compound 0.5 µM), 0.298; in experiment [1] (first compound 1.581 µM), 0.251; in experiment [1] (first compound 5 µM), 0.232; in experiment [2] (first compound 0.05 µM) it was 0.742. Also, the relative viability in experiment [2] (first compound 0.1581 µM) amounted to 0.818; in experiment [2] (first compound 0.5 µM) it was 0.735; in experiment [2] (first compound 1.581 µM) it was 0.576; in experiment [2] (first compound 5 µM), 0.678; in experiment [3] (first compound 0.05 µM) it was 0.338; in experiment [3] (first compound 0.1581 µM), 0.396. The relative viability in experiment [3] (first compound 0.5 µM) worked out at 0.406; in experiment [3] (first compound 1.581 µM), 0.449; in experiment [3] (first compound 5 µM), 0.337; in experiment [4] (first compound 0.05 µM) it was 0.408; in experiment [4] (first compound 0.1581 µM), 0.394; in experiment [4] (first compound 0.5 µM) it was 0.418. For the same cell line, the relative viability worked out at 0.502 in experiment [4] (first compound 1.581 µM) and 0.338 in experiment [4] (first compound 5 µM).

For the origin of these results see the supplement of paper PMC10307832.
